Reference: patent publication US9315498B2, “Arlethynyl derivatives” (Hoffmann-La Roche Inc., priority 2010, dated 2016)

Biological target: human mGlu5a receptor (Homo sapiens (Human), UniProt P41594)
Experiment: Intracellular Ca2+ mobilization assay (mGlu5 PAM)
Assay type: cell-based
Settings: for EC50: HEK-293 cells stably transfected with human mGlu5a, L-glutamate added at EC20 after pre-incubation with test compound, read-out: EC50 (nM) mGlu5PAM; for Emax: maximal response in % of the maximal stimulatory effect obtained with saturating concentrations of L-glutamate, read-out: Eff. (%)
Method in brief: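 HEK-293 cells stably expressing human mGlu5a at low level were loaded with Fluo-4AM and preincubated 10–30 min at 37 °C with 11-point half-log compound dilutions. L-glutamate was then added at its daily-determined EC20 (typically around 80 μM). Peak fluorescence minus basal, normalized to maximal glutamate effect, was fitted to give EC50, Hill slope and maximal response.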

Sequence of human mGlu5a receptor (P41594 other isoform, or with tags, fused parts or gaps): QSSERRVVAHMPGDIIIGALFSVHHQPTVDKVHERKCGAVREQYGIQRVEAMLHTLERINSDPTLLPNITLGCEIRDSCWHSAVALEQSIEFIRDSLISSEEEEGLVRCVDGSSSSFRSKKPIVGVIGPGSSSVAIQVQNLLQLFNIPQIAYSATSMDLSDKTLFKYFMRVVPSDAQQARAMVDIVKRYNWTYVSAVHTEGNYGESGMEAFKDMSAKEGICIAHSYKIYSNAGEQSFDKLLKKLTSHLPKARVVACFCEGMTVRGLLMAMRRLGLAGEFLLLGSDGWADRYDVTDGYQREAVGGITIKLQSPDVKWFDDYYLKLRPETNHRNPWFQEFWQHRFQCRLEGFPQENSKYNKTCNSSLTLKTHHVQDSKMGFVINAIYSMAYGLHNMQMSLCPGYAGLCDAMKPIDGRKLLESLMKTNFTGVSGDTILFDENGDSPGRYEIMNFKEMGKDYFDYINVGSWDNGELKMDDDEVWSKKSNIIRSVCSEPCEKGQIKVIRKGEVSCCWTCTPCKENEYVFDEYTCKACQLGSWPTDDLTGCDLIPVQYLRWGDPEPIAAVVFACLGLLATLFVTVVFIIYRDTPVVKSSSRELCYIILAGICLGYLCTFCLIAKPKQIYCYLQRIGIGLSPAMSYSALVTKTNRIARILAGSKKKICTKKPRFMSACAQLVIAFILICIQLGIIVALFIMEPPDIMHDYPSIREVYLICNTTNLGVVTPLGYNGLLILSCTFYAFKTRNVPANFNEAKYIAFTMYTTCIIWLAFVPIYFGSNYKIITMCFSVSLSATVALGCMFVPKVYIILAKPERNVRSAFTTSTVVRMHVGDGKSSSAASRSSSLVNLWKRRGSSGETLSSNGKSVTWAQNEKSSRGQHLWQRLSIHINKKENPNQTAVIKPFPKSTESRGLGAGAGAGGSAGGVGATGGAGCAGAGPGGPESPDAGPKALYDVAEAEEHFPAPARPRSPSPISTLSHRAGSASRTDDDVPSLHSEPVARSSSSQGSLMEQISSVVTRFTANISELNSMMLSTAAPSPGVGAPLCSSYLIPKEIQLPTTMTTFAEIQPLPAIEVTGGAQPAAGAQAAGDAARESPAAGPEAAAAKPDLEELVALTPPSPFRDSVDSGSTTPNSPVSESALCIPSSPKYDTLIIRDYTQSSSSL

SMILES | EC50 | Emax
CN1C(=O)N(c2ncc(C#Cc3ccc(F)cc3)cc2F)CC1(C)C [Example 110] | 96 nM | 117%
CC1CN(c2ncc(C#Cc3cccc(F)c3)cn2)C(=O)OC1(C)C (racemic) [Example 148, (RS)-3-[5-(3-Fluoro-phenylethynyl)-pyrimidin-2-yl]-5,6,6-trimethyl-[1,3]oxazinan-2-one] | 39 nM | 75%
CC1CN(c2ccc(C#Cc3ccccc3)cn2)C(=O)CO1 (racemic) [Example 171, (RS)-6-Methyl-4-(5-phenylethynyl-pyridin-2-yl)-morpholin-3-one] | 88 nM | 73%
Cc1cccc(C#Cc2ccc(N3CC(C)(C)N(C)C3=O)nc2)c1 [Example 56, 3,4,4-Trimethyl-1-(5-m-tolylethynyl-pyridin-2-yl)-imidazolidin-2-one] | 87 nM | 56%
CC1(C)CN(c2ccc(C#Cc3ccc(F)nc3)cn2)C(=O)O1 [Example 35, 3-[5-(6-Fluoro-pyridin-3-ylethynyl)-pyridin-2-yl]-5,5-dimethyl-oxazolidin-2-one] | 54 nM | 52%
CC1(C)CC(=O)N(c2ccc(C#Cc3cncc(Cl)c3)cn2)C1 [Example 39, 1-[5-(5-Chloro-pyridin-3-ylethynyl)-pyridin-2-yl]-4,4-dimethyl-pyrrolidin-2-one] | 48 nM | 98%
CC1(C)CCN(c2ccc(C#Cc3cccnc3)cn2)C(=O)O1 [Example 73, 6,6-Dimethyl-3-(5-pyridin-3-ylethynyl-pyridin-2-yl)-[1,3]oxazinan-2-one] | 59 nM | 98%
CO[C@H]1C(=O)N(c2ncc(C#Cc3ccccc3)cn2)CC1(C)C (single isomer, unassigned) [Example 129] | 18 nM | 90%
CC(C)N1C(=O)N(c2ncc(C#Cc3ccccc3)cn2)CC1(C)C [Example 140, 3-Isopropyl-4,4-dimethyl-1-(5-phenylethynyl-pyrimidin-2-yl)-imidazolidin-2-one] | 28 nM | 58%
CC1(C)CCN(c2ccc(C#Cc3ccc(F)cc3)cn2)C(=O)C1 [Example 91, 5′-(4-Fluoro-phenylethynyl)-4,4-dimethyl-3,4,5,6-tetrahydro-[1,2′]bipyridinyl-2-one] | 67 nM | 89%
CN1C(=O)N(c2ccc(C#Cc3cccc(Cl)c3)nn2)CC1(C)C [Example 155, 1-(6-((3-Chlorophenyl)ethynyl)pyridazin-3-yl)-3,4,4-trimethylimidazolidin-2-one] | 73 nM | 95%
O=C1CC2(CCCC2)CN1c1ncc(C#Cc2ccccc2)cn1 [Example 117, 2-(5-Phenylethynyl-pyrimidin-2-yl)-2-aza-spiro[4.4]nonan-3-one] | 44 nM | 84%
CC1(C)CCN(c2cnc(C#Cc3cccnc3)cn2)C(=O)C1 [Example 162, 4,4-Dimethyl-1-(5-(pyridin-3-ylethynyl)pyrazin-2-yl)piperidin-2-one] | 681 nM | 76%
CN1C(=O)N(c2ncc(C#Cc3ccc(F)c(F)c3)cn2)CC1(C)C [Example 126, 1-[5-(3,4-Difluoro-phenylethynyl)-pyrimidin-2-yl]-3,4,4-trimethyl-imidazolidin-2-one] | 23 nM | 36%
CC(C)N1C(=O)N(c2ncc(C#Cc3ccc(F)cc3)cn2)CC1(C)C [Example 142, 1-[5-(4-Fluoro-phenylethynyl)-pyrimidin-2-yl]-3-isopropyl-4,4-dimethyl-imidazolidin-2-one] | 78 nM | 74%
CC1(C)CCN(c2ncc(C#Cc3cc(F)ccc3F)cn2)C(=O)C1 [Example 136, 1-[5-(2,5-Difluoro-phenylethynyl)-pyrimidin-2-yl]-4,4-dimethyl-piperidin-2-one] | 31 nM | 49%
CC1(C)CN(c2ccc(C#Cc3ccc(F)cc3)cn2)C(=O)O1 [Example 32, 3-[5-(4-Fluoro-phenylethynyl)-pyridin-2-yl]-5,5-dimethyl-oxazolidin-2-one] | 19 nM | 60%
CN1C(=O)N(c2ncc(C#Cc3cccc(F)c3)cc2F)CC1(C)C [Example 111] | 32 nM | 107%
COC[C@@H]1CN(c2ccc(C#Cc3ccccc3)cn2)C(=O)O1 (single isomer, unassigned) [Example 4, (5S or 5R)-5-Methoxymethyl-3-(5-phenylethynyl-pyridin-2-yl)-oxazolidin-2-one] | 278 nM | 98%
O=C1CC2(COC2)CN1c1ccc(C#Cc2ccccc2)cn1 [Example 82, 6-(5-Phenylethynyl-pyridin-2-yl)-2-oxa-6-aza-spiro[3.4]octan-7-one] | 57 nM | 72%

SMILES | EC50 | Emax
CN1C(=O)N(c2ccc(C#Cc3cccc(Cl)c3)cn2)CC1(C)C [Example 54, 1-[5-(3-Chloro-phenylethynyl)-pyridin-2-yl]-3,4,4-trimethyl-imidazolidin-2-one] | 32 nM | 47%
CC1(C)CCN(c2cnc(C#Cc3cccc(F)c3)cn2)C(=O)C1 [Example 161, 1-(5-((3-Fluorophenyl)ethynyl)pyrazin-2-yl)-4,4-dimethylpiperidin-2-one] | 29 nM | 68%
CN1C(=O)N(c2cnc(C#Cc3ccc(F)cc3)cn2)CC1(C)C [Example 159, 1-(5-((4-Fluorophenyl)ethynyl)pyrazin-2-yl)-3,4,4-trimethylimidazolidin-2-one] | 49 nM | 49%
O=C1O[C@H]2CCC[C@@H]2CN1c1ccc(C#Cc2ccccc2)cn1 (racemic) [Example 102, (4aRS,7aSR)-3-(5-Phenylethynyl-pyridin-2-yl)-hexahydro-cyclopenta[e][1,3]oxazin-2-one] | 43 nM | 115%
CC(C)N1C(=O)N(c2ncc(C#Cc3cccc(F)c3)cn2)CC1(C)C [Example 141, 1-[5-(3-Fluoro-phenylethynyl)-pyrimidin-2-yl]-3-isopropyl-4,4-dimethyl-imidazolidin-2-one] | 28 nM | 39%
COC1C(=O)N(c2ccc(C#Cc3cccc(C)c3)cn2)CC1(C)C (racemic) [Example 64, (RS)-3-Methoxy-4,4-dimethyl-1-(5-m-tolylethynyl-pyridin-2-yl)-pyrrolidin-2-one] | 87 nM | 56%
CC1(C)CNC(=O)N(c2ccc(C#Cc3ccccc3)cn2)C1 [Example 25, 5,5-Dimethyl-1-(5-phenylethynyl-pyridin-2-yl)-tetrahydro-pyrimidin-2-one] | 69 nM | 148%
CN1C(=O)N(c2ccc(C#Cc3ccc(F)cc3)cn2)CC1(C)C [Example 57, 1-[5-(4-Fluoro-phenylethynyl)-pyridin-2-yl]-3,4,4-trimethyl-imidazolidin-2-one] | 35 nM | 78%
CC1(C)CCN(c2ccc(C#Cc3cccc(Cl)c3)cn2)C(=O)O1 [Example 77, 3-[5-(3-Chloro-phenylethynyl)-pyridin-2-yl]-6,6-dimethyl-[1,3]oxazinan-2-one] | 12 nM | 72%
CC1(C)CCN(c2ccc(C#Cc3cccc(F)c3)cn2)C(=O)C1 [Example 88, 5′-(3-Fluoro-phenylethynyl)-4,4-dimethyl-3,4,5,6-tetrahydro-[1,2′]bipyridinyl-2-one] | 19 nM | 110%
CN1C(=O)N(c2ccc(C#Cc3ccccc3)cn2)CC12CC2 [Example 96, 4-Methyl-6-(5-phenylethynyl-pyridin-2-yl)-4,6-diaza-spiro[2.4]heptan-5-one] | 35 nM | 98%
COC1C(=O)N(c2ccc(C#Cc3ccccc3)cn2)CC1(C)C (racemic) [Example 60, (RS)-3-Methoxy-4,4-dimethyl-1-(5-phenylethynyl-pyridin-2-yl)-pyrrolidin-2-one] | 35 nM | 89%
CC1(C)CC(=O)N(c2ccc(C#Cc3cccnc3)cn2)C1 [Example 38, 4,4-Dimethyl-1-(5-pyridin-3-ylethynyl-pyridin-2-yl)-pyrrolidin-2-one] | 33 nM | 147%
O=C1O[C@H]2CCC[C@H]2N1c1ccc(C#Cc2ccccc2)cn1 (racemic) [Example 22, (3aRS,6aSR)-3-(5-Phenylethynyl-pyridin-2-yl)-hexahydro-cyclopentaoxazol-2-one] | 14 nM | 74%
CN1C(=O)N(c2cnc(C#Cc3cccnc3)cn2)CC1(C)C [Example 157, 3,4,4-Trimethyl-1-(5-(pyridin-3-ylethynyl)pyrazin-2-yl)imidazolidin-2-one] | 206 nM | 34%
COC1C(=O)N(c2ncc(C#Cc3ccccc3)cn2)CC1(C)C (racemic) [Example 127, (RS)-3-Methoxy-4,4-dimethyl-1-(5-phenylethynyl-pyrimidin-2-yl)-pyrrolidin-2-one] | 29 nM | 94%
CN1C(=O)N(c2ncc(C#Cc3cc(F)ccc3F)cn2)CC1(C)C [Example 124, 1-[5-(2,5-Difluoro-phenylethynyl)-pyrimidin-2-yl]-3,4,4-trimethyl-imidazolidin-2-one] | 7 nM | 43%
CC1(C)CCN(c2ccc(C#Cc3cncc(Cl)c3)cn2)C(=O)O1 [Example 75, 3-[5-(5-Chloro-pyridin-3-ylethynyl)-pyridin-2-yl]-6,6-dimethyl-[1,3]oxazinan-2-one] | 27 nM | 87%
CC1(C)CC(=O)N(c2ccc(C#Cc3ccccc3)cn2)C1 [Example 13, 4,4-Dimethyl-1-(5-phenylethynyl-pyridin-2-yl)-pyrrolidin-2-one] | 37 nM | 129%
CN1C(=O)N(c2ccc(C#Cc3ccccc3)cn2)CC12CCCC2 [Example 44, 1-Methyl-3-(5-phenylethynyl-pyridin-2-yl)-1,3-diaza-spiro[4.4]nonan-2-one] | 29 nM | 92%
